Source: patent US6350609B1, “Electrospraying for mass fabrication of chips and libraries” (New York University, priority 1997, dated 2002)
Where “and” joins values, the source holds several entries; their conditions need not be identical. Identical values can stand only once.

Legend:
[1] = target: T1, Alkaline phosphatase (AP) from bovine intestinal mucosa (Bos taurus, UniProt P19111); test: Effect of AgNO3 added to AP solution on AP activity; format: biochemical; conditions: 10^−4 M AgNO3 added to the AP solution
T1 construct: purchased Sigma Chemical Co., St. Louis, Mo; host or cells: bovine intestinal mucosa
Method: AP activity was measured immediately after spot extraction by adding 5-20 μL of the extract solution to 1.0 mL of the p-NPP solution in the TRIS/HCl buffer prepared from Sigma Fast tablets. Activity was measured in a room with a thermostat, with a temperature of 25±1° C. […] The specific activity was calculated using protein concentration measured gravimetrically, as described above in the mass measurement section.
It is believed, therefore, that the inactivation of AP at high voltages and currents occur outside the capillary as a result of reaction with the products of corona discharge or as the result of impact with the target electrode. Impact energy should grow with an increase of the potential, causing protein distraction on impact. This can explain the increase in AP inactivation with increasing voltage and current. The generation of corona products in electrospray deposition at I>200-300 nA was noticeable from a characteristic smell of ozone in the electrospray chamber. […] The capillary with the external electrode supports corona discharge more readily than the capillary with the internal electrode, which explains why AP is inactivated at lower currents and to a higher extent when electrospray deposited from the capillary with the external electrode.

[2] = target: Avidin (Gallus gallus, UniProt P02701); test: Mechano-chemical effect of a specific ligand on cross-linked protein film (isometric tension); format: biochemical; conditions: ligand 5-10 times binding constant
[3] = target: T2, Pancreatic RNAse (Bos taurus, UniProt P61823); test: as above; format: biochemical; conditions: ligand 5-10 times binding constant
T2 construct: purchased Sigma, St. Louis
T2 sequence (P61823 27-150): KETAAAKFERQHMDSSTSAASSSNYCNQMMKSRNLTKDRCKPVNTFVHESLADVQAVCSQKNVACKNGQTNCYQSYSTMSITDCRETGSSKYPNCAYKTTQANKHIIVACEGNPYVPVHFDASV

[4] = test system: peroxidase; test: Enzyme activity of electrospray-deposited peroxidase on nitrocellulose filter (DAB substrate); format: biochemical; conditions: deposited through polypropylene mask onto wetted nitrocellulose filter; DAB staining
Source text: The electrospray conditions used in this example were similar to those used in Example 1.
After electrospray, the pattern of deposited enzyme was not visible on the membrane filter surface. However, the patterns of the enzymes did become visible after soaking the peroxidase-deposited membrane filter in a solution of a standard peroxidase substrate (3,3′-diaminobenzidine, abbreviated DAB, and obtained from Sigma, St. Louis, Mo.), resulting in the formation of an insoluble brown colored product of the peroxidase reaction.

[5] = test system: goat antibody against human serum albumin; test: microELISA of electrospray-deposited protein antigens on IMMOBILON-P filter; format: binding; conditions: primary antibody against human serum albumin 1:1000, AP-labeled secondary antibody 1:3000
Method: Different antigens (serum albumins from human and ox, ovalbumin and human hemoglobin) were electrospray deposited onto a wetted IMMOBILON-P membrane filter through a mask having multiple holes. After each deposition of a different protein antigen, the mask was shifted by 1.1 mm. After depositing all four protein antigens, the membrane filter was dried for 15 min. at 37° C. and blocked by soaking in a PBS solution (10 mM sodium phosphate buffer, pH 7.2, 0.9% NaCl) with 0.05% Tween-20, 1% chicken albumin (ovalbumin). […] The filter was then washed twice with PBS buffer for 10 seconds and reacted with a solution of anti-goat IgG antibodies labeled with alkaline phosphatase (Sigma, diluted 1:3000).

[6] = target: T3, 3-phosphoglycerate kinase (yeast) (Saccharomyces cerevisiae, UniProt P00560); test: Mechano-chemical effect of a specific ligand on cross-linked protein film (isometric tension); format: biochemical; conditions: cross-linked 3-phosphoglycerate kinase (yeast) film, ligand 5-10 times binding constant
T3 sequence (P00560 1-416): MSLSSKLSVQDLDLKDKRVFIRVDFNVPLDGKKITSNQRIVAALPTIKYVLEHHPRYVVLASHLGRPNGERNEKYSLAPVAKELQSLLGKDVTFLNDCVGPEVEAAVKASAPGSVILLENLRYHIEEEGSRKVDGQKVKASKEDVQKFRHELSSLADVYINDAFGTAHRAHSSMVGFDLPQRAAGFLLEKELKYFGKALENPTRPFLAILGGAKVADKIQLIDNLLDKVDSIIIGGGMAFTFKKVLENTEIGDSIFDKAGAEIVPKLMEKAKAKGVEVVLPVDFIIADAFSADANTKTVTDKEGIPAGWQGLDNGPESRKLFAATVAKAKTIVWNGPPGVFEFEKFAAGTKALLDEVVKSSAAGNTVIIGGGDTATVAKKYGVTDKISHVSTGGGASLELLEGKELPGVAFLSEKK

[7] = test system: Pancreatic Trypsin; test: as above; format: biochemical; conditions: ligand concentration 5-10 times binding constant; for Effect in Dried Sample % (relative change in isometric tension in protein film induced by binding of specific ligand): conventional drying on glass
[8] = target: Concanavalin A (Canavalia ensiformis, UniProt P02866); conditions: cross-linked Concanavalin A film, ligand 5-10 times binding constant
Method: Protein films were prepared by electrospray for use in a mechanochemical method of assay. A 2 mg/ml concanavalin A (Sigma, St. Louis, Mo.) solution, containing 0.5 mg/ml of glycerol was electrosprayed through a rectangular single hole onto an Al electrode covered with a polymeric conducting sublayer of about 2-5 microns thick. The sublayer was prepared by drying a thin layer of water solution of a mixture of three compounds (polyethylene glycol-8000, poly(anetholesulfonic acid)—Na-salt and Triton X-100), 3%. each. The protein solution was electrosprayed from a capillary tip placed 20 mm over the substrate, with positive voltage of 4.0 kV at the capillary and a current of 33 nA. Deposition was performed in dry air for 10 minutes. After electrospray deposition, the sample was cross-linked for 15 minutes in a vapor of 25% glutaraldehyde (Aldrich Chemical Company, Milwaukee, Wis.) at 25° C. Upon applying a droplet of water on the substrate surface, the sample was floated off the substrate within 5 seconds.

[9] = target: Lysozyme (egg) (Gallus gallus, UniProt P00698); test: Mechano-chemical effect of a specific ligand on cross-linked protein film (isometric tension); format: biochemical; conditions: ligand 5-10 times binding constant
[10] = test system: α-Lactalburnin; test: as above; format: biochemical
Source text: Using protein as an example of a biomolecule for electrospray deposition, the structure of the protein film and the functional properties of the protein molecules in the film is dependent on the path of flight of the electrospray, speed of the charged particles controlled by voltage, sign of the charges, humidity and temperature under which the protein molecules are electrosprayed, protein concentration in solution, and presence of stabilizers. At short distances, e.g., about 15 mm between capillary and substrate, or when the electrospray takes place in a humid atmosphere (relative humidity of more than 70-80%), charged microdroplets from the electrospray can reach the surface without decay or the production of dry ions, i.e., in the wet electrospray regime. The sample films obtained after evaporation of the deposited microdroplets on the substrate have much in common with the sample protein films obtained conventionally by applying a protein solution directly to the substrate and allowing the proteins to dry.

[11] = target: T4, Alcohol dehydrogenase (horse liver) (Equus caballus, UniProt P00327); test: as above; format: biochemical; conditions: 0.4 mM NADH solution
T4 construct: purchased Sigma, St. Louis, Mo; host or cells: horse liver
Method: A film of horse liver alcohol dehydrogenase (LADH, Sigma, St. Louis, Mo., shown in FIG. 14B, was fabricated on an Al electrode covered with a sublayer consisting of 95% of the sodium salt of alginic acid (Sigma, St. Louis, Mo.) and 5 of Triton X-100 detergent. The LADH solution containing 5 mg/ml of protein and 1.5 mg/ml of sucrose was electrosprayed in dry air at +4.3 kV and 30-40 nA from a capillary placed about 15 mm over the substrate. The deposited film was cross-linked for 8 minutes with the vapor from 25% glutaraldehyde at 28° C. The samples were then tested for their ability to change isometric tension in response to 0.4 mM NADH solution.

Chain of Avidin (P02701 25-152, species assumed): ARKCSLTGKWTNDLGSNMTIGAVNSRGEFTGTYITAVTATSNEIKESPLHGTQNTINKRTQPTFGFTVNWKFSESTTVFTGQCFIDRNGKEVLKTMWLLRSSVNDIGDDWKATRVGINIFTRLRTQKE
Chain of Lysozyme (egg) (P00698 19-147): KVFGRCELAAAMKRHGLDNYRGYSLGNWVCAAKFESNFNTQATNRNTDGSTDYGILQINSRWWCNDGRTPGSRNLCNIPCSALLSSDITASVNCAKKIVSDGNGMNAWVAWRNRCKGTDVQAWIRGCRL
T4 sequence (P00327 whole entry): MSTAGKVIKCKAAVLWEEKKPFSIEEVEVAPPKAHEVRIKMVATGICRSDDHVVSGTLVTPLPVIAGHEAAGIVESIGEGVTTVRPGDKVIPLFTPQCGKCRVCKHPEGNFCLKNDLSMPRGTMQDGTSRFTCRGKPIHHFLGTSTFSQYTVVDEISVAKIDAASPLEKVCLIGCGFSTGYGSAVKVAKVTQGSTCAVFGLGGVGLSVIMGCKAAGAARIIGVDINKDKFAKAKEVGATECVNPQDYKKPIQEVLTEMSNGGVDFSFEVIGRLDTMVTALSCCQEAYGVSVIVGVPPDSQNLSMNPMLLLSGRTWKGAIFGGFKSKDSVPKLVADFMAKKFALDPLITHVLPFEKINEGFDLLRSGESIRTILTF
T1 sequence (P19111 20-506): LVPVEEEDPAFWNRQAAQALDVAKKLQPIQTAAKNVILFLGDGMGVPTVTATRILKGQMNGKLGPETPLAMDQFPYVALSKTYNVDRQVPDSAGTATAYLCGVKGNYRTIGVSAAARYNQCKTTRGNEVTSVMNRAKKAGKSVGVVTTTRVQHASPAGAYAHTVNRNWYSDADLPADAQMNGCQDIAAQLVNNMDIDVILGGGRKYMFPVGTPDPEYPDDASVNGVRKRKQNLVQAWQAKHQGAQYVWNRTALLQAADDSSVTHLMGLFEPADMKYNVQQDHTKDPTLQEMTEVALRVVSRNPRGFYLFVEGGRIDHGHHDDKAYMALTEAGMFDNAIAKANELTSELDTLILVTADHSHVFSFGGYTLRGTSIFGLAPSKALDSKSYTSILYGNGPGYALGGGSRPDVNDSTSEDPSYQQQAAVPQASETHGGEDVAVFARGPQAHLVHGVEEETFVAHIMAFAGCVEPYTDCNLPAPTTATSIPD

## O=[N+]([O-])[O-].[Ag+] [AgNO3]
[1]
  inhibition of AP: does not result in any inhibition

## O=C(O)CCCC[C@@H]1SC[C@@H]2NC(=O)N[C@@H]21 [Biotin]
[2]; conventional drying on glass
  Effect in Dried Sample % (relative change in isometric tension): −51%
[2]; electrospray deposited
  Effect in Electrospray Deposit Sample % (relative change in isometric tension): −41% and −48%

## Nc1ccn([C@@H]2O[C@H](CO)[C@@H](OP(=O)(O)O)[C@H]2O)c(=O)n1 [3′-Cytidine monophosphate]
[3]; conventional drying on glass
  Effect in Dried Sample % (relative change in isometric tension): +4.0%
[3]; electrospray deposited
  Effect in Electrospray Deposit Sample % (relative change in isometric tension): −3.4%

## peroxidase: commercially available peroxidase (Sigma), electrospray deposited; horseradish peroxidase per b108
[4]
  enzymatic activity after electrospray deposition: retained

## bovine albumin: serum albumin from ox, antigen electrospray deposited onto filter
[5]
  spot intensity in microELISA: less intensively colored

## Nc1ncnc2c1ncn2[C@@H]1O[C@H](COP(=O)(O)OP(=O)([O-])OP(=O)([O-])O)[C@@H](O)[C@H]1O.[Mg+2] [Mg-ATP]
[6]; conventional drying on glass
  Effect in Dried Sample % (relative change in isometric tension): +13%
[6]; electrospray deposited
  Effect in Electrospray Deposit Sample % (relative change in isometric tension): +16%

## human hemoglobin: protein antigen electrospray deposited onto IMMOBILON-P filter
[5]
  spot intensity in microELISA: less intensively colored

## Nc1ccc2cc3ccc(N)cc3nc2c1 [Proflavin]
[7]
  Effect in Dried Sample % (relative change in isometric tension in protein film induced by binding of specific ligand): +69%
[7]; electrospray deposited
  Effect in Electrospray Deposit Sample % (relative change in isometric tension in protein film induced by binding of specific ligand): +72; +72%

## α-D-mannopyranoside
[8]; conventional drying on glass
  Effect in Dried Sample % (relative change in isometric tension): +11%
[8]; electrospray deposited
  Effect in Electrospray Deposit Sample % (relative change in isometric tension): +4%

## CC(=O)N[C@H]1C(O)O[C@H](CO)[C@@H](O)[C@@H]1O (stereo partly drawn) [N-acetyl-D-glucosamine]
[9]; conventional drying on glass
  Effect in Dried Sample % (relative change in isometric tension): −7.7% and −8.7%
[9]; electrospray deposited
  Effect in Electrospray Deposit Sample % (relative change in isometric tension): −6.3% and −3.5%

## [Ca+2] [Ca^+2]
[10]; cross-linked α-Lactalburnin film, conventional drying on glass, ligand 5-10 times binding constant
  Effect in Dried Sample % (relative change in isometric tension): +240%
[10]; cross-linked α-Lactalburnin film, electrospray deposited, ligand 5-10 times binding constant
  Effect in Electrospray Deposit Sample % (relative change in isometric tension): +370%
[10]; α-lactalbumin films, wet electrospray deposition onto glass covered with conducting SnO2 layer
  difference in mechanochemical response to ligand between wet electrospray deposited and conventionally prepared films: No notable difference

## NC(=O)C1=CN([C@@H]2O[C@H](COP(=O)(O)OP(=O)(O)OC[C@H]3O[C@@H](n4cnc5c(N)ncnc54)[C@H](O)[C@@H]3O)[C@@H](O)[C@H]2O)C=CC1 [NADH]
[11]; conventionally prepared LADH film
  ligand-induced increase in isometric tension: 6-7%
[11]; electrospray deposited LADH film, glutaraldehyde cross-linked
  ligand-induced increase in isometric tension: 6-7%

## CCOC(=O)[C@H](CCCN=C(N)N)NC(=O)c1ccccc1 [BAEE]
[7]
  Effect in Dried Sample % (relative change in isometric tension in protein film induced by binding of specific ligand): +23%

B1: ovalbumin: protein antigen electrospray deposited onto IMMOBILON-P filter (protein, UniProt P01012 2-386, looked up)
Ovalbumin: GSIGAASMEFCFDVFKELKVHHANENIFYCPIAIMSALAMVYLGAKDSTRTQINKVVRFDKLPGFGDSIEAQCGTSVNVHSSLRDILNQITKPNDVYSFSLASRLYAEERYPILPEYLQCVKELYRGGLEPINFQTAADQARELINSWVESQTNGIIRNVLQPSSVDSQTAMVLVNAIVFKGLWEKAFKDEDTQAMPFRVTEQESKPVQMMYQIGLFRVASMASEKMKILELPFASGTMSMLVLLPDEVSGLEQLESIINFEKLTEWTSSNVMEERKIKVYLPRMKMEEKYNLTSVLMAMGITDVFSSSANLSGISSAESLKISQAVHAAHAEINEAGREVVGSAEAGVDAASVSEEFRADHPFLFCIKHIATNAVLFFGRCVSP
[5]
  spot intensity in microELISA: not visible at all
